# Data reported in ChEMBL document CHEMBL3632499, “Synthesis and Antiproliferative Activity Evaluation of the Disulfide-Containing Cyclic Peptide Thiochondrilline C and Derivatives” (J Nat Prod, 2015).
# Tested on: A549
# Experiment: Antiproliferative activity against human A549 cells assessed as growth inhibition at 10 uM
# Format: functional
# Conditions: read-out: GI
smiles,measurement,value
CN1C(=O)CNC(=O)[C@H](NC(=O)c2nc3ccccc3cc2O)CSSC[C@H]1C(=O)O,inhibition of growth at 10 µM,< 30%
COC(=O)[C@H](C)N(C)C(=O)[C@@H]1CSSC[C@@H](NC(=O)c2nc3ccccc3cc2O)C(=O)NCC(=O)N1C,inhibition of growth at 10 µM,< 30%
